# In patent publication US20200253996A1, “TCTP INHIBITING AGENTS FOR THE TREATMENT OF PROLIFERATIVE DISEASES, INFECTIOUS DISEASES, ALLERGIES, INFLAMMATIONS AND/OR ASTHMA” (UNIVERSITE PARIS-SUD, priority 2017, published 2020):
# Read-outs that look alike come from different tables or passages of the source.
# Columns and labels:
# TCTP = biological target: T1, TCTP (Homo sapiens, UniProt P13693); settings: prior art section; read-out: affinity for TCTP, Kd; cited from earlier work
# T1 sequence (P13693 1-172): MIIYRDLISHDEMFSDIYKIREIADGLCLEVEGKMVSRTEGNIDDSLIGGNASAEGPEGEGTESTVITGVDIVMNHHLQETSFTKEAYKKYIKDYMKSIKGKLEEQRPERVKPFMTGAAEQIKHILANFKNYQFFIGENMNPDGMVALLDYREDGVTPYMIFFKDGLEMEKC
# human HCT116 cells = experiment: Inhibition of cell growth, CellTiter Glo assay; settings: for GI50: Homo sapiens
# Experimental: The viability and proliferation of human HCT116 cells is measured using the “CellTiter Glo®” assay (Promega), which is a luminescent measure of the number of living cells. Sertraline and AC070 were tested at 10 concentrations and results are expressed as GI50, TGI, LC50 and IC50 relative to control cells (DMSO).
# The CellTiter-Glo® assay is a homogeneous method for determining the number of viable cells in culture based on a quantification of the ATP present, an indicator of metabolically active cells. The homogeneous test procedure involves the addition of a single reagent (the CellTiter-Glo® reagent) directly to the cultured cells in serum-enriched medium.
# The results of the test are reported in the following Tables 2 and 3 (Table 2: sertraline and Table 3: AC070): […]
# p53 protein = experiment: Overexpression of p53 protein, Western blot; type: cell-based; settings: 10 μM
# Experimental: The compound AC014 is capable of inducing overexpression of p53 (FIG. 1).
# The Western blot was carried out according to the protocol described in the following article: Amson R, Pece S, Lespagnol A, Vyas R, Mazzarol G, Tosoni D, Colaluca I, Viale G, Rodrigues-Ferreira S, Wynendaele J, Chaloin O, Hoebeke J, Marine J C, Di Fiore P P, Telerman A. Nat Med. 2011 Dec. 11; 18(1):91-9.
# The following antibodies were used in the Western blot assay: anti-TCTP antibodies were generated against the whole human-derived TCTP. These polyclonal antibodies were purified by affinity column affinity coupled to TCTP (Agro-Bio). Anti-P53 1C12 mouse antibody (Cell Signaling Technology) was used at a dilution of 1/1000.
# Secondary antibodies (antirabbit and antimouse) conjugated to HRP were used at a dilution of 1/5000 to visualize the signals by Western blots.
# [1] = humans; cited from earlier work
compound,measurement,setting,value
"CN[C@H]1CC[C@@H](c2ccc(Cl)c(Cl)c2)c2ccccc21 [sertraline, reference compound]",Kd,TCTP,198 µM
same,TGI50 1,"human HCT116 cells; HCT116, CellTiter Glo, determination 1",0.203 µM
same,TGI50 2,"human HCT116 cells; HCT116, CellTiter Glo, determination 2",0.229 µM
same,TGI50 3,"human HCT116 cells; HCT116, CellTiter Glo, determination 3",0.253 µM
same,TGI50 Mean,"human HCT116 cells; HCT116, CellTiter Glo, mean",0.228 µM
same,TGI50 Median,"human HCT116 cells; HCT116, CellTiter Glo, median",0.227 µM
same,GI50,"human HCT116 cells; HCT-116, read-out: GI50 1",0.125 µM
same,GI50,"human HCT116 cells; HCT-116, read-out: GI50 2",0.141 µM
same,GI50,"human HCT116 cells; HCT-116, read-out: GI50 3",0.159 µM
same,GI50,"human HCT116 cells; HCT-116, read-out: GI50 Mean",0.142 µM
same,GI50,"human HCT116 cells; HCT-116, read-out: GI50 Median",0.14 µM
same,GI50,"human HCT116 cells; HCT-116, read-out: cell growth inhibition constant GI50",0.141 µM
same,expression of the p53 protein,p53 protein,induced
same,maximum tolerated dose (MTD),[1],400 mg/day
